The values below come from US5057522A, “Anti-hypersensitive N2-tetrazole-β-glucuronide analog” (Merck & Co., Inc., priority 1990, dated 1991).

Each structure is given as a SMILES string.

This experiment has as its target T1, Angiotensin II (A II) receptor (Oryctolagus cuniculus, UniProt P34976).
T1 construct: membrane preparation derived from rabbit aortae; tissue Pel-Freeze Biologicals; host or cells: rabbit aorta membrane preparation
T1 sequence (P34976 1-359): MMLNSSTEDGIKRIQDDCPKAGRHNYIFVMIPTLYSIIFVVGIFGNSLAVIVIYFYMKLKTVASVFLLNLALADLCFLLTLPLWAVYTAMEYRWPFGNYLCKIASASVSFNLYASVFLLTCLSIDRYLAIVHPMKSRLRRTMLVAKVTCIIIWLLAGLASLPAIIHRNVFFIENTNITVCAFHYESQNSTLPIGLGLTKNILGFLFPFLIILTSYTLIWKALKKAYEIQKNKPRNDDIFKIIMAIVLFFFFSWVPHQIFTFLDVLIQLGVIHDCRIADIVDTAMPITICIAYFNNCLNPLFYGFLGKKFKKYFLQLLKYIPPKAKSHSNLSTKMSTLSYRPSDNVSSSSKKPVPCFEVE
Briefly: Receptor binding assay using rabbit aortae membrane preparation (displacement of 125I-Sar1 Ile8-angiotensin II; "IC50" assay). The procedure: This assay is also referred to herein as the "IC50 " assay.
RECEPTOR BINDING ASSAY USING RABBIT AORTAE MEMBRANE PREPARATION
Three frozen rabbit aortae (obtained from Pel-Freeze Biologicals) were suspended in 5 mM Tris-0.25M Sucrose, pH 7.4 buffer (50 ml) homogenized, and then centrifuged. The mixture was filtered through a cheesecloth and the supernatant was centrifuged for 30 minutes at 20,000 rpm at 4° C. The pellet thus obtained was resuspended in 30 ml of 50 mM Tris-5 mM MgCl2 buffer containing 0.2% Bovine Serum Albumin and 0.2 mg/ml Bacitration and the suspension was used for 100 assay tubes. Samples tested for screening were done in duplicates. To the membrane preparation (0.25 ml) there was added ^125 I-Sar^1 Ile^8 -angiotensin II [obtained from New England Nuclear] (10 ul; 20,000 cpm) with or without the test sample and the mixture was incubated at 37° C. for 90 minutes. The mixture was then diluted with ice-cold 50 mM Tris-0.9% NaCl, pH 7.4 (4 ml) and filtered through a glass fiber filter (GF/B Whatman 2.4" diameter). The filter was soaked in scintillation cocktail (10 ml) and counted for radioactivity using Packard 2660 Tricarb liquid scintillation counter. […]
For orientation: Displacement assays read how much labelled ligand stays bound in the presence of the test substance.

Regarding `CCc1nc2c(C)cc(C)nc2n1Cc1ccc(-c2ccccc2-c2nnn([C@@H]3O[C@H](C(=O)O)[C@@H](O)[C@H](O)[C@H]3O)n2)cc1` [compound (I)], the “A II antagonist activity by the IC50 assay” value is on record as “exhibits A II antagonist activity”. For the same molecule, the IC50 (37° C., 90 minutes, read-out: inhibitory concentration (IC50) giving 50% displacement of the total specifically bound 125I-Sar1 Ile8-angiotensin II) is less than 50 µM.
